Laboratory results taken from ChEMBL document CHEMBL1201862, “PubChem BioAssay data set” (2004).
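Assay format: 96-well plates, 48-hour exposure. GI50: concentration for 50% inhibition of growth.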 Activity calls are given as the source filed them. Rule as the data show it: active = GI50 up to about 1.1 µM and inactive = higher.

Experiments:
Test in all cases: growth of human tumour cells (NCI), 48 h
786-0 = system: 786-0
KM12 = system: KM12
U-251 = system: U-251
SR = system: SR
NCI-H522 = system: NCI-H522
XF498 = system: XF498
SNB-19 = system: SNB-19
LOX IMVI = system: LOX IMVI
OVCAR-8 = system: OVCAR-8
RXF 393 = system: RXF 393
Malme-3M = system: Malme-3M
SK-OV-3 = system: SK-OV-3
HOP-18 = system: HOP-18
EKVX = system: EKVX
A498 = system: A498
SF-268 = system: SF-268
OVCAR-4 = system: OVCAR-4
CCRF-CEM = system: CCRF-CEM
TK-10 = system: TK-10
SF-539 = system: SF-539
RPMI-8226 = system: RPMI-8226
SNB-78 = system: SNB-78
SW-620 = system: SW-620
SNB-75 = system: SNB-75
LXFL 529 = system: LXFL 529
HL-60 = system: HL-60
NCI-H23 = system: NCI-H23
DLD-1 = system: DLD-1
SK-MEL-5 = system: SK-MEL-5
SN12C = system: SN12C
A549 = system: A549
MOLT-4 = system: MOLT-4
DMS-273 = system: DMS-273
M19-MEL = system: M19-MEL
K562 = system: K562
HCC 2998 = system: HCC 2998
HCT-116 = system: HCT-116
M14 = system: M14
NCI-H460 = system: NCI-H460
HT-29 = system: HT-29
SF-295 = system: SF-295
HOP-62 = system: HOP-62
SK-MEL-2 = system: SK-MEL-2
UACC-257 = system: UACC-257
HCT-15 = system: HCT-15
SK-MEL-28 = system: SK-MEL-28
ACHN = system: ACHN
CAKI-1 = system: CAKI-1
KM-20L2 = system: KM-20L2
UO-31 = system: UO-31
OVCAR-5 = system: OVCAR-5
IGROV-1 = system: IGROV-1
HOP-92 = system: HOP-92
RXF 631 = system: RXF 631
UACC-62 = system: UACC-62
DMS-114 = system: DMS-114
OVCAR-3 = system: OVCAR-3
NCI-H226 = system: NCI-H226
COLO 205 = system: COLO 205

CCCCCCCCCCCCNC(=S)OCCCC
GI50 (786-0): > 100 µM (inactive) | GI50 (KM12): 28 µM (inactive) | GI50 (U-251): 63.7 µM (inactive) | GI50 (SR): 30.1 µM (inactive) | GI50 (NCI-H522): > 100 µM (inactive) | GI50 (XF498): > 100 µM (inactive) | GI50 (SNB-19): > 100 µM (inactive) | GI50 (LOX IMVI): 15.8 µM (inactive) | GI50 (OVCAR-8): > 100 µM (inactive) | GI50 (RXF 393): > 100 µM (inactive) | GI50 (Malme-3M): > 100 µM (inactive) | GI50 (SK-OV-3): > 100 µM (inactive) | GI50 (HOP-18): > 100 µM (inactive) | GI50 (EKVX): > 100 µM (inactive) | GI50 (A498): > 100 µM (inactive) | GI50 (SF-268): > 100 µM (inactive) | GI50 (OVCAR-4): > 100 µM (inactive) | GI50 (CCRF-CEM): 29.4 µM (inactive) | GI50 (TK-10): 19.7 µM (inactive) | GI50 (SF-539): > 100 µM (inactive) | GI50 (RPMI-8226): 15.7 µM (inactive) | GI50 (SNB-78): > 100 µM (inactive) | GI50 (SW-620): > 100 µM (inactive) | GI50 (SNB-75): > 100 µM (inactive) | GI50 (LXFL 529): > 100 µM (inactive) | GI50 (HL-60): 16.4 µM (inactive) | GI50 (NCI-H23): > 100 µM (inactive) | GI50 (DLD-1): > 100 µM (inactive) | GI50 (SK-MEL-5): 81.3 µM (inactive) | GI50 (SN12C): 59.2 µM (inactive) | GI50 (A549): > 100 µM (inactive) | GI50 (MOLT-4): 17.9 µM (inactive) | GI50 (DMS-273): > 100 µM (inactive) | GI50 (M19-MEL): 42.2 µM (inactive) | GI50 (K562): 65.3 µM (inactive) | GI50 (HCC 2998): > 100 µM (inactive) | GI50 (HCT-116): 50.7 µM (inactive) | GI50 (M14): > 100 µM (inactive) | GI50 (NCI-H460): > 100 µM (inactive) | GI50 (HT-29): 72.3 µM (inactive) | GI50 (SF-295): > 100 µM (inactive) | GI50 (HOP-62): > 100 µM (inactive) | GI50 (SK-MEL-2): 17.2 µM (inactive) | GI50 (UACC-257): 35.7 µM (inactive) | GI50 (HCT-15): > 100 µM | GI50 (SK-MEL-28): 76.6 µM (inactive) | GI50 (ACHN): > 100 µM (inactive) | GI50 (CAKI-1): > 100 µM (inactive) | GI50 (KM-20L2): > 100 µM (inactive) | GI50 (UO-31): > 100 µM (inactive) | GI50 (OVCAR-5): 31.8 µM (inactive) | GI50 (IGROV-1): > 100 µM (inactive) | GI50 (HOP-92): > 100 µM (inactive) | GI50 (RXF 631): > 100 µM (inactive) | GI50 (UACC-62): > 100 µM (inactive) | GI50 (DMS-114): 34.8 µM (inactive)

Cc1ccc2[nH]c(Sc3c([N+](=O)[O-])ncn3C)nc2c1
GI50 (786-0): 27.8 µM (inactive) | GI50 (KM12): 67 µM (inactive) | GI50 (U-251): 22.9 µM (inactive) | GI50 (SR): 12.3 µM (inactive) | GI50 (XF498): 0.586 µM (active) | GI50 (SNB-19): > 100 µM (inactive) | GI50 (LOX IMVI): 34.3 µM (inactive) | GI50 (OVCAR-8): 14.4 µM (inactive) | GI50 (RXF 393): 16.1 µM (inactive) | GI50 (Malme-3M): 15.8 µM (inactive) | GI50 (SK-OV-3): 30 µM (inactive) | GI50 (HOP-18): 17.5 µM (inactive) | GI50 (EKVX): 26.1 µM (inactive) | GI50 (A498): 25.1 µM (inactive) | GI50 (SF-268): 31.5 µM (inactive) | GI50 (OVCAR-3): 17.5 µM (inactive) | GI50 (OVCAR-4): 18.1 µM (inactive) | GI50 (TK-10): 44.9 µM (inactive) | GI50 (SF-539): 18.1 µM (inactive) | GI50 (RPMI-8226): 25.1 µM (inactive) | GI50 (NCI-H226): 12.8 µM (inactive) | GI50 (SNB-78): 23.2 µM (inactive) | GI50 (SW-620): 25.3 µM (inactive) | GI50 (SNB-75): 25.3 µM (inactive) | GI50 (LXFL 529): > 10 µM (inactive) | GI50 (NCI-H23): 18.6 µM (inactive) | GI50 (DLD-1): 20.4 µM (inactive) | GI50 (SK-MEL-5): 17.1 µM (inactive) | GI50 (SN12C): 18 µM (inactive) | GI50 (A549): 30.5 µM (inactive) | GI50 (MOLT-4): 13.9 µM (inactive) | GI50 (DMS-273): 12.2 µM (inactive) | GI50 (COLO 205): 13.3 µM (inactive) | GI50 (M19-MEL): 18.5 µM (inactive) | GI50 (HCC 2998): 15.7 µM (inactive) | GI50 (HCT-116): 21.1 µM (inactive) | GI50 (M14): 17.6 µM (inactive) | GI50 (NCI-H460): 35.2 µM (inactive) | GI50 (HT-29): 29.6 µM (inactive) | GI50 (SF-295): > 100 µM (inactive) | GI50 (HOP-62): > 100 µM (inactive) | GI50 (UACC-257): 12.6 µM (inactive) | GI50 (HCT-15): 13.8 µM | GI50 (SK-MEL-28): 37.4 µM (inactive) | GI50 (ACHN): 33 µM (inactive) | GI50 (CAKI-1): 11.9 µM (inactive) | GI50 (KM-20L2): 25.6 µM (inactive) | GI50 (UO-31): 27.5 µM (inactive) | GI50 (OVCAR-5): 46.8 µM (inactive) | GI50 (IGROV-1): 22.1 µM (inactive) | GI50 (HOP-92): 16.1 µM (inactive) | GI50 (RXF 631): 17.2 µM (inactive) | GI50 (UACC-62): 19 µM (inactive) | GI50 (DMS-114): 14.3 µM (inactive)
